Test results taken from patent US20250092044A1, “Kinase Inhibitors” (Incyte Corporation, priority 2023, published 2025).

Legend:
[1] = tested on: FLT3; assay: FLT3 Enzymatic Assay; assay type: biochemical
In short: (§1)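 Room-temperature HTRF kinase assay (665/620 nm ratio) with 0.011 nM FLT3, 1 mM ATP, 500 nM biotinylated TK substrate in HEPES pH 7.0 buffer with MgCl2 and DTT; 0.5% DMSO final. Read after 60 min incubation; IC50 fitted from percent control activity versus log concentration, no-ATP wells as negative control.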

[2] = tested on: pSTAT5 in SET-2 cells in whole blood; assay: pSTAT5 SET-2 Whole Blood MSD Assay; assay type: cell-based; details: Homo sapiens, 2 hour incubation, read-out: SET2 WB IC50
Experimental: SET-2 cells shipped from ABS, RPMI1640 medium, Fetal Bovine Serum from Gibco, Phospho-STAT5a,b Whole Cell Lysate Kit from Mesoscale, Retronectin (Recombinant Human Fibronectin Fragment) from TaKaRa, 96 well cell culture plate flat bottom from Corning, lysis buffer from Cell Signaling Technology, and sterile PBS from Gibco. Whole Blood from by BioIVT.
SET-2 cells were cultured in RPMI media with 20% FBS at 37° C. humidified incubator supplied with 5% CO2. On the day of the assay, 40 uL per well of diluted retronectin working solution was added to sterile 96-well clear flat bottom tissue culture plates (1:200 dilution of retronectin in sterile PBS) and incubated at 37 C for 1 hour. After 1 hour, the retronectin working solution was aspirated and SET-2 cells were seeded at 100,000/well in RPMI+20% FBS. Cells were incubated overnight at 37° C. and 5% CO2. The next day, the medium was removed and 40 μL of diluted compounds in serum-free RPMI and whole blood was added to the cells for a 2 hour incubation at 37° C. and 5% CO2. The compound starting concentration is 20 μM and 2.5 fold serial diluted down to 0.21 nM. The whole blood and compound mixture was then aspirated off using the BlueCat plate washer and washed 1× with PBS. Cells were lysed by adding 40 μL of 3× complete lysis buffer and shaken at room temperature for 45-60 minutes (complete lysis buffer consists of Cell Signaling Technology lysis buffer diluted to 3× and supplemented with Mesoscale's protease inhibitor, phosphatase I inhibitor, and phosphatase II inhibitor). The pSTAT5 MSD plates were blocked by adding 150 μL of Blocker A solution per well to the MSD plates and incubated at room temperature with shaking at 400 rpm for one hour or longer. After blocking, plates were washed 3× with 300 μL/well of 1× Tris Wash Buffer. After lysis, added 25 μL per well of lysed sample was added to MSD plate and incubated with shaking at 4° C. wrapped in foil overnight. The next day, plates were washed again and 25 μL/well of diluted 1× Detection Antibody Solution, wrapped in foil, and incubated at room temperature with shaking at 400 rpm for 1 hour. Plates were then washed again and lastly, 150 μL/well of 1× Read Buffer T was added to all wells. Plates were analyzed on MSD Discovery within 5 minutes. […] Data analysis was performed in GraphPad Prism using a 4-parameter fit and data was reported as Average±SD.

[3] = biological target: catalytic domain (JH1) of human JAK2 (Homo sapiens (Human), UniProt O60674); assay: JAK2 LanthaScreen JH1 Binding Assay; details: read-out: JH1 Bind IC50
Experimental: JAK2 JH1 binding assay utilizes catalytic domain (JH1, amino acids 826-1132) of human JAK2 expressed as N-terminal FLAG-tagged, biotinylated protein in a baculovirus expression system (Carna Biosciences, Product #08-445-20N). The assay was conducted in black 384-well polystyrene plates in a final reaction volume of 20 μL. JAK2 JH1 (1.5 nM) was incubated with compounds (100 nL serially diluted in DMSO) in the presence of 50 nM fluorescent JAK2-JH1 tracer and 0.5 nM Streptavidin-Tb cryptate (Cisbio Part #610SATLB) in assay buffer (50 mM Tris, pH=7.5, 10 mM MgCl2, 0.01% Brij-35, 0.1% BSA, 1 mM EGTA, 5% Glycerol and 5 mM DTT). Non-specific binding was accessed in the presence of 2 mM ATP. After incubation for 2 hours at 25° C., LanthaScreen signals were read on a PHERAstar FS plate reader (BMG LABTECH). Data was analyzed with IDBS XLfit and GraphPad Prism 5.0 software using a four parameter dose response curve to determine IC50 for each compound.

[4] = biological target: FLT3 (Homo sapiens (Human), UniProt P36888); assay: FLT3 Enzymatic Assay; assay type: biochemical; details: 1 mM ATP
In short: as §1

[5] = tested on: STAT5 (Tyr694) phosphorylation in SET-2 cells; assay: STAT5 (Tyr694) Phosphorylation Cell Based Assay; details: Homo sapiens, 2 hours, read-out: SET2 IC50
In short: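 SET-2 cells in RPMI with 10% FBS were exposed to compound for 2 h at 37 °C (0.5% DMSO final). After lysis, phospho-STAT5 (Tyr694) was read by HTRF (665/620 ratio) after 24 h antibody incubation at room temperature. IC50 was fitted from percent control activity versus log concentration.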

Sequence of catalytic domain (JH1) of human JAK2 (O60674 826-1132): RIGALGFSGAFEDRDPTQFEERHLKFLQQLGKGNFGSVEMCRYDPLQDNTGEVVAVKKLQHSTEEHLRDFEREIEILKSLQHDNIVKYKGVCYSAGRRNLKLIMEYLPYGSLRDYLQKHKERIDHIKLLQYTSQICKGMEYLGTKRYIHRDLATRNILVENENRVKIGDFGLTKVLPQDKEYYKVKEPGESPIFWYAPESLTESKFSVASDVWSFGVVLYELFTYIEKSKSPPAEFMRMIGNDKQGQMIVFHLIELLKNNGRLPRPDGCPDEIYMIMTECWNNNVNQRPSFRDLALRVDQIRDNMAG
Sequence of FLT3 (Homo sapiens (Human), UniProt P36888) (P36888 27-993, species assumed): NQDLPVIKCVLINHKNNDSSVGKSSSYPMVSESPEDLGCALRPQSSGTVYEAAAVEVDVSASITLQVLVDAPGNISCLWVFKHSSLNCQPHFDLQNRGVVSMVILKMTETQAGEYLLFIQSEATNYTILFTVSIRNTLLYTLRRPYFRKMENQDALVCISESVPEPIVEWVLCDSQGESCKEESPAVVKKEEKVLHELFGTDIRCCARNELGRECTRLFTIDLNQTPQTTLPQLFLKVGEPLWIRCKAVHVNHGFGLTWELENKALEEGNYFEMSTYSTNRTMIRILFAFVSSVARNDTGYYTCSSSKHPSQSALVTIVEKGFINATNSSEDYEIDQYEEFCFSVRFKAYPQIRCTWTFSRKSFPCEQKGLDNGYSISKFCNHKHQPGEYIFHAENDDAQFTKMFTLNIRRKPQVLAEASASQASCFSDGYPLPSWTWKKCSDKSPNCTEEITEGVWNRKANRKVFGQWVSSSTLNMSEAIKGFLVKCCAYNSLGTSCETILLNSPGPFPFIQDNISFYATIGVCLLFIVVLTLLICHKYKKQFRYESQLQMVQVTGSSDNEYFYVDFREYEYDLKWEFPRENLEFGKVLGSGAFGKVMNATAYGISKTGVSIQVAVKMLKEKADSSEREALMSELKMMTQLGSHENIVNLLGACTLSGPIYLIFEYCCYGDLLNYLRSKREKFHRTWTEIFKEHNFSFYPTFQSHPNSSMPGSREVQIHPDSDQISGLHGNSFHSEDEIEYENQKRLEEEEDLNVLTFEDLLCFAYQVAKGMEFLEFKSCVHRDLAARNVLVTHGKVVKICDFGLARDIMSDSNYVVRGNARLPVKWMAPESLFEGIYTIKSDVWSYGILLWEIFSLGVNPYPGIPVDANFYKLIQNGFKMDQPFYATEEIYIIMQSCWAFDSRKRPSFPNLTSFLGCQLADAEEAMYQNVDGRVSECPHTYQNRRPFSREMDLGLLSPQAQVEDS

Row | SMILES | Selectivity FLT3/JH2 V617F [1] | IC50 [2] | IC50 [3] | IC50 [4] | IC50 [5]
1 | COc1nn(C)cc1-c1[nH]c2ncc3c(c2c1-c1ccc2c(cnn2C)c1)n(C1CCOCC1)c(=O)n3C [Comparative Example A, reference compound] | * (selectivity of ≤500-fold) | 5000 to 7500 nM | > 1000 nM |  | 
2 | [2H]C([2H])([2H])n1ncc2cc(-c3c(-c4cn(C)nc4OC)[nH]c4ncc5c(c34)n(C3CCOCC3)c(=O)n5C)ccc21 [Comparative Example B, reference compound] | * (selectivity of ≤500-fold) | 5000 to 7500 nM | > 1000 nM |  | 
3 | COc1nn(C)cc1-c1[nH]c2ncc3c(c2c1-c1ccc2c(cnn2C)c1)n([C@H]1CC[C@@H](CC#N)CC1)c(=O)n3C [E, reference compound] | * (selectivity of ≤500-fold) | > 7500 nM | > 1000 nM |  | 
4 | CCNC(=O)c1ccc(-c2[nH]c3ncc4c(c3c2-c2ccc3c(cnn3C(C)C)c2)n([C@@H]2CC[C@@H](NC(=O)OC)C2)c(=O)n4C)cc1F [Example 6, Methyl ((1R,3R)-3-(7-(4-(ethylcarbamoyl)-3-fluorophenyl)-8-(1-isopropyl-1H-indazol-5-yl)-3-methyl-2-oxo-3,6-dihydroimidazo[4,5-d]pyrrolo[2,3-b]pyridin-1(2H)-yl)cyclopentyl)carbamate] | ***** (selectivity of >5000-fold to ≤12500-fold) | 2500 to 5000 nM | > 1000 nM | 1250 to 2500 nM | ≤ 300 nM
5 | COC(=O)N[C@@H]1CC[C@@H](n2c(=O)n(C)c3cnc4[nH]c(-c5ccc(C(=O)NC6CC6)c(F)c5)c(-c5ccc6c(cnn6C(C)C)c5)c4c32)C1 [Example 8, Methyl ((1R,3R)-3-(7-(4-(cyclopropylcarbamoyl)-3-fluorophenyl)-8-(1-isopropyl-1H-indazol-5-yl)-3-methyl-2-oxo-3,6-dihydroimidazo[4,5-d]pyrrolo[2,3-b]pyridin-1(2H)-yl)cyclopentyl)carbamate] | ****** (selectivity of >12500-fold) | 5000 to 7500 nM | > 1000 nM | > 2500 nM | 300 to 800 nM
6 | COC(=O)N[C@@H]1CC[C@@H](n2c(=O)n(C)c3cnc4[nH]c(-c5ccc(C(=O)NC6CC6(F)F)c(F)c5)c(-c5ccc6c(cnn6C(C)C)c5)c4c32)C1 (stereo partly drawn) [Example 9, Methyl ((1R,3R)-3-(7-(4-((2,2-difluorocyclopropyl)carbamoyl)-3-fluorophenyl)-8-(1-isopropyl-1H-indazol-5-yl)-3-methyl-2-oxo-3,6-dihydroimidazo[4,5-d]pyrrolo[2,3-b]pyridin-1(2H)-yl)cyclopentyl)carbamate] | ****** (selectivity of >12500-fold) | 5000 to 7500 nM | > 1000 nM | > 2500 nM | 300 to 800 nM
7 | COC(=O)N[C@@H]1CC[C@@H](n2c(=O)n(C)c3cnc4[nH]c(-c5ccc(C(=O)NC6CC6C(F)(F)F)c(F)c5)c(-c5ccc6c(cnn6C(C)C)c5)c4c32)C1 (stereo partly drawn) [Example 10, Methyl ((1R,3R)-3-(7-(3-fluoro-4-((2-(trifluoromethyl)cyclopropyl)carbamoyl)phenyl)-8-(1-isopropyl-1H-indazol-5-yl)-3-methyl-2-oxo-3,6-dihydroimidazo[4,5-d]pyrrolo[2,3-b]pyridin-1(2H)-yl)cyclopentyl)carbamate] | ****** (selectivity of >12500-fold) | > 7500 nM | > 1000 nM | > 2500 nM | 300 to 800 nM
8 | COC(=O)N[C@@H]1CC[C@@H](n2c(=O)n(C)c3cnc4[nH]c(-c5ccc(C(=O)NCC(F)(F)F)c(F)c5)c(-c5ccc6c(cnn6C(C)C)c5)c4c32)C1 [Example 11, Methyl ((1R,3R)-3-(7-(3-fluoro-4-((2,2,2-trifluoroethyl)carbamoyl)phenyl)-8-(1-isopropyl-1H-indazol-5-yl)-3-methyl-2-oxo-3,6-dihydroimidazo[4,5-d]pyrrolo[2,3-b]pyridin-1(2H)-yl)cyclopentyl)carbamate] | ****** (selectivity of >12500-fold) | > 7500 nM | > 1000 nM | > 2500 nM | ≤ 300 nM
9 | CNC(=O)c1ccc(-c2[nH]c3ncc4c(c3c2-c2ccc3c(cnn3C(C)C)c2)n([C@@H]2CC[C@@H](NC(=O)OC)C2)c(=O)n4C)cc1F [Example 12, Methyl ((1R,3R)-3-(7-(3-fluoro-4-(methylcarbamoyl)phenyl)-8-(1-isopropyl-1H-indazol-5-yl)-3-methyl-2-oxo-3,6-dihydroimidazo[4,5-d]pyrrolo[2,3-b]pyridin-1(2H)-yl)cyclopentyl)carbamate] | ****** (selectivity of >12500-fold) | > 7500 nM | > 1000 nM | > 2500 nM | ≤ 300 nM
10 | COC(=O)N[C@@H]1CC[C@@H](n2c(=O)n(C)c3cnc4[nH]c(-c5ccc(C(=O)NC6(C(F)(F)F)CC6)c(F)c5)c(-c5ccc6c(cnn6C(C)C)c5)c4c32)C1 [Example 13, Methyl ((1R,3R)-3-(7-(3-fluoro-4-((1-(trifluoromethyl)cyclopropyl)carbamoyl)phenyl)-8-(1-isopropyl-1H-indazol-5-yl)-3-methyl-2-oxo-3,6-dihydroimidazo[4,5-d]pyrrolo[2,3-b]pyridin-1(2H)-yl)cyclopentyl)carbamate] | ****** (selectivity of >12500-fold) | 5000 to 7500 nM | > 1000 nM | > 2500 nM | 300 to 800 nM
11 | COCCNC(=O)c1ccc(-c2[nH]c3ncc4c(c3c2-c2ccc3c(cnn3C(C)C)c2)n([C@@H]2CC[C@@H](NC(=O)OC)C2)c(=O)n4C)cc1F [Example 14, Methyl ((1R,3R)-3-(7-(3-fluoro-4-((2-methoxyethyl)carbamoyl)phenyl)-8-(1-isopropyl-1H-indazol-5-yl)-3-methyl-2-oxo-3,6-dihydroimidazo[4,5-d]pyrrolo[2,3-b]pyridin-1(2H)-yl)cyclopentyl)carbamate] | ****** (selectivity of >12500-fold) | 5000 to 7500 nM | > 1000 nM | > 2500 nM | ≤ 300 nM
12 | COCCN(C)C(=O)c1ccc(-c2[nH]c3ncc4c(c3c2-c2ccc3c(cnn3C(C)C)c2)n([C@@H]2CC[C@@H](NC(=O)OC)C2)c(=O)n4C)cc1F [Example 15, Methyl ((1R,3R)-3-(7-(3-fluoro-4-((2-methoxyethyl)(methyl)carbamoyl)phenyl)-8-(1-isopropyl-1H-indazol-5-yl)-3-methyl-2-oxo-3,6-dihydroimidazo[4,5-d]pyrrolo[2,3-b]pyridin-1(2H)-yl)cyclopentyl)carbamate] | ****** (selectivity of >12500-fold) | 5000 to 7500 nM | > 1000 nM | 1250 to 2500 nM | ≤ 300 nM
